Patent publication US20250360160A1, “NEW MEDICAL USE OF TAFOXIPARIN” (DILAFOR AB, priority 2022, published 2025)

Test system: term pregnant, nulliparous women with an unripe cervix
Test: Clinical phase II trial PPL17 (Parts A and B), subcutaneous tafoxiparin vs placebo
Format: in vivo, human
Conditions: for proportion of women achieving spontaneous onset of labor: placebo 28.7%, FIG. 1; for Labor induced, number of subjects: onset of labor with intervention; for Labor induced with PGE-1, percent of subjects: placebo 10.2%; for Labor induced with amniotomy, percent of subjects: placebo 56.8%; for Labor induction with Balloon catheter, percent of subjects: placebo 58.0%; for Labor induced, percent of subjects: placebo 70.5%
Protocol: A clinical phase II trial is performed as a randomized, double-blind, placebo-controlled, parallel-group proof of concept study (Part A) with a conditional dose finding follow up study (Part B) to evaluate the efficacy, safety, tolerability and dose response of subcutaneously administered tafoxiparin as a supplement to induction therapy in term pregnant, nulliparous women with an unripe cervix. The study is performed in Sweden and Finland (PPL17), and an EMA (European Medicines Agency) description of the study can be found on the EU Clinical Trials Register web (www.clinicaltrialsregister.eu/ctr-search/search?query=PPL17).
A total of 170 term pregnant women are randomized to receive either 300 mg of tafoxiparin, or corresponding placebo (vehicle), administered subcutaneously every 24±3 hours and up to a total of 7 doses, or until partus (Part A).
In the dose finding follow up study (Part B), a total of 164 term pregnant women are randomized to receive either 75 or 150 mg of tafoxiparin administered subcutaneously every 24±3 hours […] and up to a total of 7 doses, or until partus.
To assess the efficacy of tafoxiparin on cervical ripening/cervical ripening rate, during and up to the first seven days of treatment, measured by Bishop score. All women must be examined to check the cervical state before enrollment.
Time from start of treatment to increase in Bishop score of ≥2 points or spontaneous onset of labor, whichever comes first. Time from start of treatment to increase in Bishop score of ≥3 points or spontaneous onset of labor, whichever comes first. Time from start of treatment to increase in Bishop score of ≥4 points or spontaneous onset of labor, whichever comes first.
Cervical ripening as measured by change from baseline to end of treatment in Bishop Score. Time from onset of labor to partus, where onset of labor is defined as last record of 4 cm cervical dilatation visualized in the partogram and progress of labor, or last record of 4 cm of cervical dilatation in combination with amniotomy and intravenous administration oxytocin.
Proportion of women with spontaneous onset of labor (Response group I).
Tafoxiparin/Placebo is supplied by Dilafor AB to the site as kits designed to constitute 300 mg of tafoxiparin or placebo for daily administration. Apart from the active substance, each ml of study drug will constitute 0.015 M phosphate buffer. The study medication kit for each patient will contain 8 doses consisting of 2 vials containing a minimum extractable volume of 1.6 ml of 150 mg/ml of tafoxiparin or placebo. One dose is a reserve dose in case a dose is rendered unusable. The investigational product should be administered subcutaneously every 24±3hours by the site staff for up to 7 doses, or until partus. At each dosing time 1.0 ml of the drug will be extracted from each of the 2 vials and injected as separate s.c. injections in the abdominal or hip region.
Tafoxiparin/Placebo is supplied by Dilafor AB to the site as kits designed to constitute 75 or 150 mg of tafoxiparin for daily administration. Apart from the active substance, each ml of study drug will constitute 0.015 M phosphate buffer. The study medication kit for each patient will contain 8 doses consisting of 2 vials for each injection occasion containing a minimum extractable volume of 1.6 ml of 150 mg/ml of tafoxiparin or placebo. For subjects receiving 75 mg of tafoxiparin, one vial will contain active substance and one containing placebo. For subjects receiving 150 mg of tafoxiparin, both vials will contain active substance. One dose is a reserve dose in case a dose is rendered unusable. The investigational product should be administered subcutaneously every 24±3 hours by the site staff for up to 7 doses, or until partus. At each dosing time, 0.5 ml of the drug will be extracted from each of the 2 vials and injected as separate s.c. injections in the abdominal or hip region. […]

[1] = 75 mg, n = 83, listed as tafoxiparin

Substance: tafoxiparin
- proportion of women achieving spontaneous onset of labor (75 mg daily s.c., of 82 women, p 0.102): 40.2%
- number of subjects (women) that reach spontaneous onset of labor (75 mg, Study day 1, n=33): 0
- percent of subjects (women) that reach spontaneous onset of labor (75 mg, Study day 1, n=33): (0%)
- number of subjects (women) that reach spontaneous onset of labor (75 mg, Study day 2, n=33): 3
- percent of subjects (women) that reach spontaneous onset of labor (75 mg, Study day 2, n=33): (9%)
- number of subjects (women) that reach spontaneous onset of labor (75 mg, Study day 3, n=33): 6
- percent of subjects (women) that reach spontaneous onset of labor (75 mg, Study day 3, n=33): (18%)
- number of subjects (women) that reach spontaneous onset of labor (75 mg, Study day 4, n=33): 11
- percent of subjects (women) that reach spontaneous onset of labor (75 mg, Study day 4, n=33): (33%)
- number of subjects (women) that reach spontaneous onset of labor (75 mg, Study day 5, n=33): 22
- percent of subjects (women) that reach spontaneous onset of labor (75 mg, Study day 5, n=33): (67%)
- number of subjects (women) that reach spontaneous onset of labor (75 mg, Study day 6, n=33): 25
- percent of subjects (women) that reach spontaneous onset of labor (75 mg, Study day 6, n=33): (76%)
- number of subjects (women) that reach spontaneous onset of labor (75 mg, Study day 7, n=33): 32
- percent of subjects (women) that reach spontaneous onset of labor (75 mg, Study day 7, n=33): (97%)
- number of subjects (women) that reach spontaneous onset of labor (75 mg, Study day 8, n=33): 33
- percent of subjects (women) that reach spontaneous onset of labor (75 mg, Study day 8, n=33): (100%)
- Fetal distress as indication for operative delivery (ODFD), number of patients (75 mg, n = 83): 16
- Labor induced with PGE-1, number of subjects (75 mg, n = 83): 7
- Labor induced with amniotomy, number of subjects (75 mg, n = 83): 46
- Labor induced with oxytocin, number of subjects (75 mg, n = 83): 34
- Labor induction with Balloon catheter, number of subjects (75 mg, n = 83): 35
- Labor induced, number of subjects (75 mg, n = 83): 48
- Labor induced with PGE-1, percent of subjects (75 mg, n = 83): (8.4%)
- Labor induced with PGE-1, percent of subjects [1]: 8.4%
- Fetal distress as indication for operative delivery (ODFD), percent of patients (75 mg, n = 83, placebo 22.7%): 19.3%
- Percent of patients with operative delivery (75 mg, n = 83, placebo 45.5%): 38.6%
- Labor induced with oxytocin, percent of subjects (75 mg, n = 83, placebo 54.5%): (41.0%)
- Labor induced with oxytocin, percent of subjects (75 mg, n = 83, placebo 54.5%, listed as tafoxiparin): 41.0%
- Labor induced with amniotomy, percent of subjects (75 mg, n = 83): (55.4%)
- Labor induced with amniotomy, percent of subjects [1]: 55.4%
- Labor induction with Balloon catheter, percent of subjects (75 mg, n = 83): (42.2%)
- Labor induction with Balloon catheter, percent of subjects [1]: 42.2%
- Labor induced, percent of subjects (75 mg, n = 83): (57.8%)
- Labor induced, percent of subjects [1]: 57.8%
- number of women reaching spontaneous onset of labor with uncomplicated delivery (75 mg, of 29 women): 22 women
- proportion of women reaching spontaneous onset of labor with uncomplicated delivery (75 mg, of 29 women, placebo 54.5%): 75.9%
- number of women needing instrumental delivery or caesarian section to reach partus (75 mg, of 33 women): 11 women
- number reaching partus by vaginal delivery with no need for instrumental delivery nor caesarian section (75 mg, of 33 women): 22 women
- number of women achieving spontaneous onset of labor (75 mg, of 82 women): 33 women
- number of women needing instrumental delivery (75 mg, spontaneous onset of labor, of 29 women): 7 women
- proportion reaching partus by vaginal delivery with no need for instrumental delivery nor caesarian section (75 mg, women with spontaneous onset of labor, of 33, placebo 48%, FIG. 5): 66.7%
- proportion of women needing instrumental delivery or caesarian section to reach partus (75 mg, women with spontaneous onset of labor, of 33, placebo 52%, FIG. 5): 33.3%
- proportion of women needing instrumental delivery (75 mg, women with spontaneous onset of labor, vaginal mode of partus, of 29, p=0.181, placebo 45.5%, FIG. 4): 24.1%
- proportion of women achieving spontaneous onset of labor (150 mg daily s.c., of 85 women, p 0.039): 42.4%
- number of subjects (women) that reach spontaneous onset of labor (150 mg, Study day 1, n=36): 0
- percent of subjects (women) that reach spontaneous onset of labor (150 mg, Study day 1, n=36): (0%)
- number of subjects (women) that reach spontaneous onset of labor (150 mg, Study day 2, n=36): 4
- percent of subjects (women) that reach spontaneous onset of labor (150 mg, Study day 2, n=36): (11%)
- number of subjects (women) that reach spontaneous onset of labor (150 mg, Study day 3, n=36): 15
- percent of subjects (women) that reach spontaneous onset of labor (150 mg, Study day 3, n=36): (42%)
- number of subjects (women) that reach spontaneous onset of labor (150 mg, Study day 4, n=36): 19
- percent of subjects (women) that reach spontaneous onset of labor (150 mg, Study day 4, n=36): (53%)
- number of subjects (women) that reach spontaneous onset of labor (150 mg, Study day 5, n=36): 26
- percent of subjects (women) that reach spontaneous onset of labor (150 mg, Study day 5, n=36): (72%)
- number of subjects (women) that reach spontaneous onset of labor (150 mg, Study day 6, n=36): 30
- percent of subjects (women) that reach spontaneous onset of labor (150 mg, Study day 6, n=36): (83%)
- number of subjects (women) that reach spontaneous onset of labor (150 mg, Study day 7, n=36): 34
- percent of subjects (women) that reach spontaneous onset of labor (150 mg, Study day 7, n=36): (94%)
- number of subjects (women) that reach spontaneous onset of labor (150 mg, Study day 8, n=36): 35
- percent of subjects (women) that reach spontaneous onset of labor (150 mg, Study day 8, n=36): (97%)
- number of subjects (women) that reach spontaneous onset of labor (150 mg, Study day 9, n=36): 36
- percent of subjects (women) that reach spontaneous onset of labor (150 mg, Study day 9, n=36): (100%)
- Fetal distress as indication for operative delivery (ODFD), number of patients (150 mg, n = 85): 20
- Labor induced with PGE-1, number of subjects (150 mg, n = 85): 7
- Labor induced with amniotomy, number of subjects (150 mg, n = 85): 39
- Labor induced with oxytocin, number of subjects (150 mg, n = 85): 38
- Labor induction with Balloon catheter, number of subjects (150 mg, n = 85): 37
- Labor induced, number of subjects (150 mg, n = 85): 48
- Labor induced with PGE-1, percent of subjects (150 mg, n = 85): (8.2%)
